# The supplement of paper PMC10307832
# Assays:
# Test in all cases: relative viability (nuclei count vs DMSO), 5 days (fraction); higher = more cells survive
# KIN001-266 + Luminespib = compound: CCN1CCC(CC1)N2C=C(N=N2)CNC3=CC4=C(C(=CN=C4C(=C3)Cl)C#N)NC5=CC(=C(C=C5)F)Cl [KIN001-266] + CCNC(=O)c1noc(-c2cc(C(C)C)c(O)cc2O)c1-c1ccc(CN2CCOCC2)cc1 [Luminespib] (partner 0.01 µM)
# Procedure, shortened: (§1)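 For relative viability, nuclei counts in treated wells were divided by those in vehicle wells. Lung cancer cell lines had been pin-tool dosed in 1536-well plates the day after seeding and cultured for 5 days, then fixed and stained in one step (final 0.05% Triton X-100, 1% formaldehyde, 1 ug/ml Hoechst) and imaged at 4×. Doses were one drug alone or a fixed anchor-drug dose plus five library-drug doses (not always all listed) in √10 steps, and values are duplicate-plate medians.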
# KIN001-266 + Dasatinib = compound: CCN1CCC(CC1)N2C=C(N=N2)CNC3=CC4=C(C(=CN=C4C(=C3)Cl)C#N)NC5=CC(=C(C=C5)F)Cl [KIN001-266] + Cc1nc(Nc2ncc(C(=O)Nc3c(C)cccc3Cl)s2)cc(N2CCN(CCO)CC2)n1 [Dasatinib] (partner 0.075 µM)
# Procedure, shortened: as §1
# KIN001-266 + Bortezomib = compound: CCN1CCC(CC1)N2C=C(N=N2)CNC3=CC4=C(C(=CN=C4C(=C3)Cl)C#N)NC5=CC(=C(C=C5)F)Cl [KIN001-266] + CC(C)C[C@H](NC(=O)[C@H](Cc1ccccc1)NC(=O)c1cnccn1)B(O)O [Bortezomib] (partner 0.002 µM)
# Procedure, shortened: as §1
# KIN001-266 + Navitoclax = compound: CCN1CCC(CC1)N2C=C(N=N2)CNC3=CC4=C(C(=CN=C4C(=C3)Cl)C#N)NC5=CC(=C(C=C5)F)Cl [KIN001-266] + CC1(C)CCC(c2ccc(Cl)cc2)=C(CN2CCN(c3ccc(C(=O)NS(=O)(=O)c4ccc(N[C@H](CCN5CCOCC5)CSc5ccccc5)c(S(=O)(=O)C(F)(F)F)c4)cc3)CC2)C1 [Navitoclax] (partner 0.5 µM)
# Procedure, shortened: as §1
Cell Line,relative viability (KIN001-266 + Luminespib; first compound 0.08 µM),relative viability (KIN001-266 + Luminespib; first compound 0.253 µM),relative viability (KIN001-266 + Luminespib; first compound 0.8 µM),relative viability (KIN001-266 + Luminespib; first compound 2.53 µM),relative viability (KIN001-266 + Luminespib; first compound 8 µM),relative viability (KIN001-266 + Dasatinib; first compound 0.08 µM),relative viability (KIN001-266 + Dasatinib; first compound 0.253 µM),relative viability (KIN001-266 + Dasatinib; first compound 0.8 µM),relative viability (KIN001-266 + Dasatinib; first compound 2.53 µM),relative viability (KIN001-266 + Dasatinib; first compound 8 µM),relative viability (KIN001-266 + Bortezomib; first compound 0.08 µM),relative viability (KIN001-266 + Bortezomib; first compound 0.253 µM),relative viability (KIN001-266 + Bortezomib; first compound 0.8 µM),relative viability (KIN001-266 + Bortezomib; first compound 2.53 µM),relative viability (KIN001-266 + Bortezomib; first compound 8 µM),relative viability (KIN001-266 + Navitoclax; first compound 0.08 µM),relative viability (KIN001-266 + Navitoclax; first compound 0.253 µM),relative viability (KIN001-266 + Navitoclax; first compound 0.8 µM),relative viability (KIN001-266 + Navitoclax; first compound 2.53 µM),relative viability (KIN001-266 + Navitoclax; first compound 8 µM)
NCI-H1651,0.845,0.936,0.753,0.861,0.593,0.43,0.421,0.388,0.472,0.411,0.98,0.969,0.869,0.93,0.897,0.954,1.04,1.1,0.949,1.05
NCI-H1666,0.982,0.993,1.02,0.951,0.923,0.798,0.811,0.784,0.833,0.804,1.03,0.826,0.668,0.785,0.686,1.06,0.983,0.852,0.91,0.847
NCI-H1734,0.196,0.195,0.191,0.19,0.193,0.474,0.466,0.43,0.419,0.401,1.07,0.842,0.822,0.805,0.768,0.789,0.839,0.612,0.808,0.61
NCI-H1755,0.339,0.799,0.389,0.445,0.418,0.415,0.387,0.471,0.478,0.451,0.956,0.972,0.847,0.918,0.884,1.01,0.985,0.981,0.992,0.799
